Structures are written as SMILES. Where a name gives a salt, the structure may show the parent alone.

One may read the melting point as the temperature of the solid-liquid transition.

In one data set the target is T1, hCRF1 (Homo sapiens, UniProt P34998).
T1 construct: Celll membranes are prepared according the method of Dieterich and DeSouza (1996); endogenous in cells; host or cells: human IMR-32 neuroblastoma cells (membrane preparation)
T1 sequence (P34998 24-415): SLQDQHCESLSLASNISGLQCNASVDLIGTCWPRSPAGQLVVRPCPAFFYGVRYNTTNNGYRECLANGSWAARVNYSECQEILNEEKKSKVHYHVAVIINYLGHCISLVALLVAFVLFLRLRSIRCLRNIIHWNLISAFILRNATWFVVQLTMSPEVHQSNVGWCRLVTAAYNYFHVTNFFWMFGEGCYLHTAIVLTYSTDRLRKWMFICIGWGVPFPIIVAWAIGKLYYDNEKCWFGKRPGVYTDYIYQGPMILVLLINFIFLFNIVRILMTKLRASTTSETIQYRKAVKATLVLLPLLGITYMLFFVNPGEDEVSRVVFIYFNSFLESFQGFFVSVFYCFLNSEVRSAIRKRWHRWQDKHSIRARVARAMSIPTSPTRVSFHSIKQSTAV
Briefly: CRF Receptor Binding Assay. Particulars: CRF1 receptor binding affinity (table title); read-out: hCRF1 (pIC50) (converted). How it is done:
Human IMR-32 neuroblastoma cells are grown to 80% confluence in MEM medium containing 10% heat-inactivated FBS, 1 mM Sodium Pyruvate, and 0.1 mM nonessential amino acids. Celll membranes are prepared according the method of Dieterich and DeSouza (1996). The cells (˜5E+9) are resuspended in 10 volumes of wash buffer (5 mM Tris HCl, 10 mM MgCl2, 2 mM EGTA, pH 7.4 at RT), homogenized with a Polytron, and then centrifuged at 45,000 G for 20 min at 4° C. The membrane pellets are washed twice with wash buffer (45,000 G for 20 min at 4° C.) and then resuspended (50 mM Tris HCl, 10 mM MgCl2, 2 mM EGTA, pH 7.4 at RT). Protein concentration is determined using Pierce reagents and BSA as standard. Aliquots of 1-1.5 ml are stored at −80° C. until binding assay.
The competition binding assay is performed in a final volume of 250 μl, which contains assay buffer (50 mM Tris-HCl, 10 mM MgCl2, 2 mM EGTA, 0.2% BSA, 0.1 mM bacitracin and 100 kIU/ml aprotinin pH 7.2 at R.T.), 0.05 nM [^125I]Tyr^0-ovine CRF (Du Pont New England Nuclear), 50 μg of membrane protein, and test compound at various concentrations. Non-specific binding is determined with 1 uM hCRF. Binding reactions are terminated after 2 hr incubation at 25° C. by filtering through 96-w GF/C filter plate using a Packard Harvester (Filtermate 196). The 96-w filter plate is pre-treated with 0.3% polyethyleneimine and pre-washed with washing buffer (50 mM Tris-HCl, 10 mM MgCl2, 2 mM EGTA, 0.2% BSA, pH 7.2 at 4° C.). Unbound radioactivity is removed by four rapid washes (0.8 ml/well) with wash buffer. The radioactivity is quantified using a Packard TopCount. Data are analyzed using non-linear iterative curve fitting to obtain IC50 and Hill slope values. PKi values are derived from pIC50 values (−log of IC50).

Take `Cc1cc(C)c(N2CCCc3c2nn(C)c3Br)c(Cl)c1` [Example 1, 3-Bromo-7-(2-chloro-4,6-dimethylphenyl)-2-methyl-4,5,6,7-tetrahydro-2H-pyrazolo[3,4-b]pyridine]: the melting point fell in the range of 106 to 107 °C. The IC50 on hCRF1 was 1070 nM.

Regarding `CCCC(O)(c1cccs1)c1c2c(nn1C)N(c1c(C)cc(C)cc1C)CCC2` (stereo not drawn) [Example 5c, 1-[2-Methyl-7-(2,4,6-trimethylphenyl)-4,5,6,7-tetrahydro-2H-pyrazolo[3,4-b]pyridin-3-yl]-1-thiophen-2-ylbutan-1-ol], the melting point lay within 175.9 to 178.4 °C. The IC50 on hCRF1 was 11200 nM.

`CC/C=C(\CCC)c1c2c(nn1C)N(c1ccc(Cl)cc1Cl)CCC2` [Example 6e, 7-(2,4-Dichlorophenyl)-2-methyl-3-(1-propylbut-1-enyl)-4,5,6,7-tetrahydro-2H-pyrazolo[3,4-b]pyridine]: the IC50 at hCRF1 is 234 nM.

`CCCC(CCC)c1c2c(nn1C)N(c1c(C)cc(C)cc1C)CCC2` [Example 7b, 2-Methyl-3-(1-propylbutyl)-7-(2,4,6-trimethylphenyl)-4,5,6,7-tetrahydro-2H-pyrazolo[3,4-b]pyridine]: the melting point lay in the range of 91.5 to 92 °C. In addition, the IC50 on hCRF1 is 87.1 nM.

The compound `CCCN(CCC)c1c2c(nn1C)N(c1c(C)cc(C)cc1C)CCC2` [Example 9ae, [2-Methyl-7-(2,4,6-trimethylphenyl)-4,5,6,7-tetrahydro-2H-pyrazoio[3,4-b]pyridin-3-yl]-dipropylamine] came in with a melting point of 88.9 to 91.5 °C.

The compound `CCC(CC)Nc1c2c(nn1C)N(c1c(C)cc(C)cc1C)CCC2` [Example 9af, (1-Ethylpropyl)-[2-methyl-7-(2,4,6-trimethyl-phenyl)-4,5,6,7-tetrahydro-2H-pyrazolo[3,4-b]pyridin-3-yl]-amine] gave a melting point of 99.3 to 104.9 °C.

The compound `CCC(COC)Nc1c2c(nn1C)N(c1c(C)cc(C)cc1C)CCC2` (stereo not drawn) [Example 9aj, (1-Methoxymethylpropyl)-[2-methyl-7-(2,4,6-trimethylphenyl)-4,5,6,7-tetrahydro-2H-pyrazolo[3,4-b]pyridin-3-yl]-amine] showed a melting point of 96.5 to 102.5 °C.

`CCCC(COC)Nc1c2c(nn1C)N(c1c(C)cc(C)cc1C)CCC2` (stereo not drawn) [Example 9ak, (1-Methoxymethylbutyl)-[2-methyl-7-(2,4,6-trimethylphenyl)-4,5,6,7-tetrahydro-2H-pyrazolo[3,4-b]pyridin-3-yl]-amine] registered a melting point of 100.1 to 104.4 °C.

With `CCCN(Cc1ccco1)c1c2c(nn1C)N(c1c(C)cc(C)cc1Cl)CCC2` [Example 9c, [7-(2-Chloro-4,6-dimethyl-phenyl)-2-methyl-4,5,6,7-tetrahydro-2H-pyrazolo[3,4-b]pyridin-3-yl]-furan-2-ylmethyl-propyl-aminetrifluoroacetic acid salt], the IC50 at hCRF1 was 832 nM.

In turn, `CCCN(CC1CC1)C(=O)c1c2c(nn1C)N(c1c(C)cc(C)cc1Cl)CCC2` [Example 10a, 7-(2-Chloro-4,6-dimethylphenyl)-2-methyl-4,5,6,7-tetrahydro-2H-pyrazolo[3,4-b]pyridine-3-carboxylic acidcyclopropylmethylpropylamide] gave a melting point of 120.6 to 122 °C.

`Cc1cc(C)c(N2CCCc3c2nn(C)c3C(=O)N2CCc3ccccc3C2)c(C)c1` [Example 10b, (3,4-Dihydro-1H-isoquinolin-2-yl)-[2-methyl-7-(2,4,6-trimethyl-phenyl)-4,5,6,7-tetrahydro-2H-pyrazolo[3,4-b]pyridin-3-yl]-methanone] showed a melting point of 80.3 to 87.7 °C.

With `CCC(=O)Nc1c2c(nn1C)N(c1c(C)cc(C)cc1C)CCC2` [Example 10c, N-[2-Methyl-7-(2,4,6-trimethylphenyl)-4,5,6,7-tetrahydro-2H-pyrazolo[3,4-b]pyridin-3-yl]propionamide], the melting point lay within 226 to 228 °C.

For the compound `COCC(=O)Nc1c2c(nn1C)N(c1c(C)cc(C)cc1C)CCC2` [Example 10d, 2-Methoxy-N-[2-methyl-7-(2,4,6-trimethyl-phenyl)-4,5,6,7-tetrahydro-2H-pyrazolo[3,4-b]pyridin-3-yl]acetamide], the melting point lay in the range of 133.8 to 135 °C.

For `Cc1cc(C)c(N2CCCc3c2nn(C)c3CN2CCc3ccccc3C2)c(C)c1` [Example 11, 2-[2-Methyl-7-(2,4,6-trimethyl-phenyl)-4,5,6,7-tetrahydro-2H-pyrazolo[3,4-b]pyridin-3-ylmethyl]-1,2,3,4-tetrahydroisoquinolinedihydrochloride], the IC50 on hCRF1 was 12000 nM.

With `CCCC(CCC)Oc1c2c(nn1C)N(c1ccc(Cl)cc1Cl)CCC2` [Example 12b, 7-(2,4-Dichlorophenyl)-2-methyl-3-(1-propylbutoxy)-4,5,6,7-tetrahydro-2H-pyrazolo[3,4-b]pyridinehydrochloride], the IC50 at hCRF1 is 27.5 nM.

Consider `Cc1cc(C)c(N2CCCc3c2nn(C)c3-c2ccccc2C(F)(F)F)c(C)c1` [Example 13a, 2-Methyl-3-(2-trifluoromethylphenyl)-7-(2,4,6-trimethylphenyl)-4,5,6,7-tetrahydro-2H-pyrazolo[3,4-b]pyridine], for which the melting point lay in the range of 59 to 63 °C. The IC50 on hCRF1 is 776 nM.

Compound `COc1cccc(OC)c1-c1c2c(nn1C)N(c1c(C)cc(C)cc1C)CCC2` [Example 13b, 3-(2,6-Dimethoxyphenyl)-2-methyl-7-(2,4,6-trimethylphenyl)-4,5,6,7-tetrahydro-2H-pyrazolo[3,4-b]pyridine] gave a melting point of 169.9 to 172.8 °C.

(Values after patent publication US7268146B2, “Ring fused pyrazole derivatives as CRF antagonists” (Palo Alto LLC, priority 2001, dated 2007).)
